{"source": "paper PMC11091828", "about": "(Journal of medicinal chemistry, 2023)", "key": {"hMOR": {"molecular_target": "hMOR (Homo sapiens, UniProt P35372)", "sequence (P35372 whole entry)": "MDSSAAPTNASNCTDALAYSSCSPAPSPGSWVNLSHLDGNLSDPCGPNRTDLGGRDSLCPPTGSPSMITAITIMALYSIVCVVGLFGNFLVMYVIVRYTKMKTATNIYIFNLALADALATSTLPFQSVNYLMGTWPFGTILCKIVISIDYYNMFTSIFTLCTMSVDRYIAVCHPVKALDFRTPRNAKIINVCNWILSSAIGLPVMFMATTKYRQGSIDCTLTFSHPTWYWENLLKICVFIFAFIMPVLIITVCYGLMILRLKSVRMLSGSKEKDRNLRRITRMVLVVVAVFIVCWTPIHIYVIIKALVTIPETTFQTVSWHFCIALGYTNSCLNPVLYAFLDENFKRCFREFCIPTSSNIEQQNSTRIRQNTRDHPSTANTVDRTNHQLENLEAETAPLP", "experiment": "hMOR radioligand binding, competition with [3H]-DAMGO, HEK293 membranes", "settings": "for improved MOR affinity with respect to 2-THP unsubstituted analog: 122 vs 115, 121 vs 112"}, "mMOR [1]": {"molecular_target": "T1, mMOR (Mus musculus, UniProt P42866)", "T1 sequence (P42866 whole entry)": "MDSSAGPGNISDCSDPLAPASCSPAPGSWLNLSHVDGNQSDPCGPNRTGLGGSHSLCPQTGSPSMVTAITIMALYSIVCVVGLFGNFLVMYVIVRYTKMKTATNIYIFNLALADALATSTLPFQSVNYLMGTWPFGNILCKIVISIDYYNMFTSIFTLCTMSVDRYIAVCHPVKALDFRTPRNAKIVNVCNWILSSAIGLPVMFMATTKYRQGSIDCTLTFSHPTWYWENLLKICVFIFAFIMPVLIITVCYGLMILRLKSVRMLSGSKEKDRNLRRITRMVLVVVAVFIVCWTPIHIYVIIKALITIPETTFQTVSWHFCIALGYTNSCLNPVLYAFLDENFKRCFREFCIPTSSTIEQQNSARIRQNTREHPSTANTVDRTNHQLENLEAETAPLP", "experiment": "BRET Nb33 recruitment at MOR, HEK 293T cells", "type": "cell-based", "settings": "read-out: MOR Nb33 recruitment Emax ± SEM"}, "mMOR [2]": {"molecular_target": "T1, mMOR", "experiment": "BRET arrestin-3 recruitment at MOR with overexpressed GRK2, HEK 293T cells", "type": "cell-based", "settings": "NA = No Activity at the highest tested concentration"}, "hD3R [3]": {"molecular_target": "T2, hD3R (Homo sapiens, UniProt P35462)", "T2 sequence (P35462 whole entry)": "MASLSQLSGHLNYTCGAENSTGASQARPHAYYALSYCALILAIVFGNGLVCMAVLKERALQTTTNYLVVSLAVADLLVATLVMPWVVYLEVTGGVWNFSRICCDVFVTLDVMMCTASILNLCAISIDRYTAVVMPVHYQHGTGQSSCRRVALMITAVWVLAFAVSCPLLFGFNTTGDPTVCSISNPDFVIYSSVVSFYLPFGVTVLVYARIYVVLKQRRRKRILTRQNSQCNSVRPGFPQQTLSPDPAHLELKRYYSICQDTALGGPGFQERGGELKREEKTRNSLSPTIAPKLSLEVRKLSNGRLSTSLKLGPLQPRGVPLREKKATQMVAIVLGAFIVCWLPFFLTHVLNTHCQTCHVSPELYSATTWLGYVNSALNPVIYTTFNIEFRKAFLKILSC", "type": "binding", "settings": "from Ki values"}, "hD3R [4]": {"molecular_target": "T2, hD3R", "experiment": "BRET D3R-mediated GαoA G protein activation", "type": "cell-based", "settings": "agonist mode; NA = No Activity at the highest tested concentration"}, "mMOR [5]": {"molecular_target": "T1, mMOR", "experiment": "BRET MOR-mediated Gαi2 G protein activation", "type": "cell-based", "settings": "NA = No Activity at the highest tested concentration"}}}
{"smiles": "CN(C)C(=O)C(CCN1C[C@H](O)CC1=CN1CCN(c2cccc(Cl)c2Cl)CC1)(c1ccccc1)c1ccccc1", "note": "(mixture of isomers) [compound 26, (R)-4-(2-((4-(2,3-Dichlorophenyl)piperazin-1-yl)methylene)-4-hydroxypyrrolidin-1-yl)-N,N-dimethyl-2,2-diphenylbutanamide]", "values": [{"measurement": "Ki", "setting": "hMOR", "value": 23.8, "unit": "nM"}]}
{"smiles": "CCCN(CCC(C(=O)N(C)C)(c1ccccc1)c1ccccc1)[C@@H]1C[C@H]1c1ccc(Cl)cc1", "note": "(relative stereo) [compound 80, rel-trans-4-((2-(4-Chlorophenyl)cyclopropyl)(propyl)amino)-N,N-dimethyl-2,2-diphenylbutanamide]", "values": [{"measurement": "Emax", "setting": "mMOR [1]", "value": "27.7 ± 4.9", "unit": "%"}]}
{"smiles": "COc1ccccc1[C@@H]1C[C@H]1NCCC(C(=O)N(C)C)(c1ccccc1)c1ccccc1", "note": "(relative stereo) [compound 84, rel-trans-4-((2-(2-Methoxyphenyl)cyclopropyl)amino)-N,N-dimethyl-2,2-diphenylbutanamide]", "values": [{"measurement": "Emax", "setting": "mMOR [1]", "value": "31 ± 2.3", "unit": "%"}]}
{"smiles": "Clc1ccc([C@@H]2C[C@H]2NCCC2(c3ccccn3)CCOC3(CCCC3)C2)cc1", "note": "(relative stereo) [compound 121, rel-trans-2-(4-Chlorophenyl)-N-(2-(9-(pyridin-2-yl)-6-oxaspiro[4.5]decan-9-yl)ethyl)cyclopropan-1-amine]", "values": [{"measurement": "improved MOR affinity with respect to 2-THP unsubstituted analog", "setting": "hMOR", "value": "> 10", "unit": "fold"}, {"measurement": "MOR arr3 recruitment (+ GRK2) pEC50 ± SEM", "setting": "mMOR [2]", "value": "6.58 ± 0.08"}, {"measurement": "D3R selectivity over D2R", "setting": "hD3R [3]", "value": 15, "unit": "fold"}]}
{"smiles": "CCc1cc(Cl)c(OC)c(N2CCN(C[C@@H]3C[C@@H](O)CN3CCC(C(=O)N(C)C)(c3ccccc3)c3ccccc3)CC2)c1", "note": "[compound 34, 4-((2S,4R)-2-((4-(3-Chloro-5-ethyl-2-methoxyphenyl)piperazin-1-yl)methyl)-4-hydroxypyrrolidin-1-yl)-N,N-dimethyl-2,2-diphenylbutanamide]", "values": [{"measurement": "D3R GoA activation pEC50 ± SEM", "setting": "hD3R [4]", "value": "7.60 ± 0.99"}]}
{"smiles": "CN(C)C(=O)C(CCN1C[C@H](F)C[C@H]1C(=O)NCCCCN1CCN(c2cccc(C(F)(F)F)n2)CC1)(c1ccccc1)c1ccccc1", "note": "[compound 56, (2S,4R)-1-(4-(Dimethylamino)-4-oxo-3,3-diphenylbutyl)-4-fluoro-N-(4-(4-(6-(trifluoromethyl)pyridin-2-yl)piperazin-1-yl)butyl)pyrrolidine-2-carboxamide]", "values": [{"measurement": "MOR Gi2 activation pEC50 ± SEM", "setting": "mMOR [5]", "value": "5.94 ± 0.08"}]}
{"smiles": "FC(F)(F)c1cccc(N2CCN(CCC3(c4ccccn4)CCOC4(CCCC4)C3)CC2)n1", "note": "(stereo not drawn) [compound 122, 1-(2-(9-(Pyridin-2-yl)-6-oxaspiro[4.5]decan-9-yl)ethyl)-4-(6-(trifluoromethyl)pyridin-2-yl)piperazine]", "values": [{"measurement": "improved MOR affinity with respect to 2-THP unsubstituted analog", "setting": "hMOR", "value": "> 10", "unit": "fold"}]}
